Assay results from ChEMBL document CHEMBL1158447, “Substituted benzimidazoles: A novel chemotype for small molecule hKSP inhibitors” (Bioorg Med Chem Lett, 2009).

Legend:
[1] = target: T1, Kinesin-like protein KIF11 (Homo sapiens, UniProt P52732); test: Inhibition of human kinesin spindle protein by endpoint assay
T1 sequence (P52732 whole entry): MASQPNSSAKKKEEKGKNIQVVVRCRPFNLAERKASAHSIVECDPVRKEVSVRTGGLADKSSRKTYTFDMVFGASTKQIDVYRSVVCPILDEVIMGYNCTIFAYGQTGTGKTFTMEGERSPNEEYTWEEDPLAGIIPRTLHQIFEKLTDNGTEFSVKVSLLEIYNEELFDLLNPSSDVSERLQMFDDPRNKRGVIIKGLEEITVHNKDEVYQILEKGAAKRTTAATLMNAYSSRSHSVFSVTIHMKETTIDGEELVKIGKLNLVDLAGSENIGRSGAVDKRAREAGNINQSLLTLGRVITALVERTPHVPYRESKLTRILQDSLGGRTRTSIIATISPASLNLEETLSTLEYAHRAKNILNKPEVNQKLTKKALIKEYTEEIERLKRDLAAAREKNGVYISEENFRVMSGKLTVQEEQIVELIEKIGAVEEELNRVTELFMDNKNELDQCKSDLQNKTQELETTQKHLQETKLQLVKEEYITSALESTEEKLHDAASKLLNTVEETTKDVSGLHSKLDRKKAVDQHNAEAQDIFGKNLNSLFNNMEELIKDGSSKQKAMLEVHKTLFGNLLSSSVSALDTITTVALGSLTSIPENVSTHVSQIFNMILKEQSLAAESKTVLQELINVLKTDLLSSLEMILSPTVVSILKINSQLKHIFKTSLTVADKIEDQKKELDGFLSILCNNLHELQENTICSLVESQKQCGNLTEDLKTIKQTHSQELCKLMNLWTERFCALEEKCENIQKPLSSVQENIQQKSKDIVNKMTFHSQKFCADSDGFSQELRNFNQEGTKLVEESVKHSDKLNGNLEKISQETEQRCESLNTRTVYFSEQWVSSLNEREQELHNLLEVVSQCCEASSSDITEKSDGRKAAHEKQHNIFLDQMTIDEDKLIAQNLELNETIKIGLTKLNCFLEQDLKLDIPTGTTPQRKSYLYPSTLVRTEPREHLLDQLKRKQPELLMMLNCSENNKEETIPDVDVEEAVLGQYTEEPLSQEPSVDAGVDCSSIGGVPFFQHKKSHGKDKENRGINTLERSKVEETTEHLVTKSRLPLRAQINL

[2] = target: T2, Kinesin heavy chain isoform 5A (Homo sapiens, UniProt Q12840); test: Inhibition of nKHC
T2 sequence (Q12840 whole entry): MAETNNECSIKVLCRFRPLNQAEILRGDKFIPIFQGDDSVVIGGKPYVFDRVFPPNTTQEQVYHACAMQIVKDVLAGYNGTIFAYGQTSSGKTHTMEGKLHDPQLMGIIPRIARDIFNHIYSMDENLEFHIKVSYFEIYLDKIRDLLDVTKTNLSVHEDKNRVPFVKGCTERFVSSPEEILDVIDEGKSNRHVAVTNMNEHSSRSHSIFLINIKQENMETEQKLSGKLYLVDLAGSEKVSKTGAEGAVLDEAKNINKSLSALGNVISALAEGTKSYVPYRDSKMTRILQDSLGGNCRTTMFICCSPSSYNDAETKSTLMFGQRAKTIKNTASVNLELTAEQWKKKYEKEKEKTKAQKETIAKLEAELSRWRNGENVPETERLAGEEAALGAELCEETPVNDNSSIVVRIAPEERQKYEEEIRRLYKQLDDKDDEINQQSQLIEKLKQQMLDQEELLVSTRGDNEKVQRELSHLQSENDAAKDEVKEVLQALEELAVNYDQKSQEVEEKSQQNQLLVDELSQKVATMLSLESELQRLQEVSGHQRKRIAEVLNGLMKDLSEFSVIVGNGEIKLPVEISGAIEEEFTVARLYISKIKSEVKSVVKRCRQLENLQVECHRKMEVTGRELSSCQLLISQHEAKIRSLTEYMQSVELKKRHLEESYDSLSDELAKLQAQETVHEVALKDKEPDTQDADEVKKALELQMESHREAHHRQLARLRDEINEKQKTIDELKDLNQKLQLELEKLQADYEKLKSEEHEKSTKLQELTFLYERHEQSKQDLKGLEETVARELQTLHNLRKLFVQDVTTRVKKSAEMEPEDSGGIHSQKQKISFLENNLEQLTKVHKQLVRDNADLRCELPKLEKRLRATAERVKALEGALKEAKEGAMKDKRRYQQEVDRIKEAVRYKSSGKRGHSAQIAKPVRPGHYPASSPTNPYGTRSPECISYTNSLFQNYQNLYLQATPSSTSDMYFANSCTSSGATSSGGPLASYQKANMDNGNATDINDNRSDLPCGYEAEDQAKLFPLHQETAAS

[3] = target: T3, Kinesin-like protein KIF3B (Homo sapiens, UniProt O15066); test: Inhibition of Kif3B
T3 sequence (O15066 whole entry): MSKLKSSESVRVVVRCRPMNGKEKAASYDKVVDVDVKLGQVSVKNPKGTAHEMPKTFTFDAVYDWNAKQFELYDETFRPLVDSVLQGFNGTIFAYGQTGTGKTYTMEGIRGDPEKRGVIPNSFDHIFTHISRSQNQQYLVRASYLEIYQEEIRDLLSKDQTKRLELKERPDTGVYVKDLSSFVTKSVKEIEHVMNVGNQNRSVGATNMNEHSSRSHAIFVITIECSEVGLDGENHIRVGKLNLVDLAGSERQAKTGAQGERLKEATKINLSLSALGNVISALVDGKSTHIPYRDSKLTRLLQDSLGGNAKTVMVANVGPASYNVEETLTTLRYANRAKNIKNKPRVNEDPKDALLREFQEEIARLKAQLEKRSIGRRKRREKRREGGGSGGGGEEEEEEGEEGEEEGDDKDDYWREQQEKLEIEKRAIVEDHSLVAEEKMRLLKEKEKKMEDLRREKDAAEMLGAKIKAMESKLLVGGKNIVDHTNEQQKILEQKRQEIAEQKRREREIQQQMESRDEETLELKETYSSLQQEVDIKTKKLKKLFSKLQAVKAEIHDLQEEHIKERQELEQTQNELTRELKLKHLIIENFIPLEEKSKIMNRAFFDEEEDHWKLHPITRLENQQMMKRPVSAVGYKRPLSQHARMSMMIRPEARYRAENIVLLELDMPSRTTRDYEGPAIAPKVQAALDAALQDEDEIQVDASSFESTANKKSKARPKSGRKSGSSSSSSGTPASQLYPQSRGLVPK

[4] = target: Kinesin-like protein KIF11 (Homo sapiens) (UniProt P52732); test: Selectivity for human KSP over HSET

Compound | IC50 [1] [µM] | IC50 [2] [µM] | IC50 [3] [µM] | fold change (FC) [4]
NC(=O)c1cc2nc(Nc3ccc(S(N)(=O)=O)cc3)n(Cc3ccccc3C(F)(F)F)c2cc1F | 7.9 | – | – | –
COc1ccc(Nc2nc3cc(C(N)=O)ccc3n2Cc2ccccc2C(F)(F)F)cc1F | 1.3 | > 50 | > 50 | 11
CSc1ccc(Nc2nc3cc(C(=O)O)ccc3n2Cc2ccccc2C(F)(F)F)cc1 | 1.4 | > 50 | > 50 | –
CSc1ccc(Cc2nc3cc(C(=O)O)ccc3n2Cc2ccccc2C(F)(F)F)cc1 | > 20 | – | – | –
COc1ccc(Nc2nc3cc(C(=O)O)ccc3n2Cc2ccccc2C(F)(F)F)cc1F | 2.3 | > 50 | > 50 | –
CS(=O)(=O)c1ccc(CNc2nc3cc(C(=O)O)ccc3n2Cc2ccccc2C(F)(F)F)cc1 | > 20 | > 50 | > 50 | –
O=C(O)c1ccc2c(c1)nc(NCCN1CCOCC1)n2Cc1ccccc1C(F)(F)F | > 20 | > 50 | > 50 | –
COc1ccccc1NC(=O)c1ccc2c(c1)nc(Nc1ccc(S(N)(=O)=O)cc1)n2Cc1ccccc1C(F)(F)F | 2.4 | > 50 | > 50 | –
COC(=O)c1ccc2c(c1)nc(Nc1ccc(SC)cc1)n2Cc1ccccc1C(F)(F)F | 33.4 | > 50 | > 50 | –
CS(=O)(=O)c1ccc(Nc2nc3cc(C(=O)O)ccc3n2Cc2ccccc2C(F)(F)F)cc1 | 6.9 | > 50 | > 50 | 7
NC(=O)c1cc2c(cc1F)nc(Nc1ccc(S(N)(=O)=O)cc1)n2Cc1ccccc1C(F)(F)F | > 20 | – | – | –
CNC(=O)c1ccc2c(c1)nc(Nc1ccc(OC)cc1)n2Cc1ccccc1C(F)(F)F | 5.2 | > 50 | > 50 | –
COc1ccc(Nc2nc3cc(C(=O)O)ccc3n2Cc2ccccc2C(F)(F)F)cc1 | > 20 | > 50 | > 50 | –
COc1ccc(CNc2nc3cc(C(=O)O)ccc3n2Cc2ccccc2C(F)(F)F)cc1 | > 20 | > 50 | > 50 | –
COc1ccc(Nc2nc3cc(C(=O)Nc4ccccc4OC)ccc3n2Cc2ccccc2C(F)(F)F)cc1 | 6 | > 50 | > 50 | –
NS(=O)(=O)c1ccc(Nc2nc3cc(C(=O)N4CCCC4)ccc3n2Cc2ccccc2C(F)(F)F)cc1 | > 20 | > 50 | > 50 | –
COC(=O)c1ccc2c(c1)nc(Nc1ccc(OC)cc1)n2Cc1ccccc1C(F)(F)F | 13.4 | > 50 | > 50 | –
NS(=O)(=O)c1ccc(CNc2nc3cc(C(=O)O)ccc3n2Cc2ccccc2C(F)(F)F)cc1 | > 20 | > 50 | > 50 | –
COc1ccc(Cc2nc3cc(C(=O)O)ccc3n2Cc2ccccc2C(F)(F)F)cc1 | > 20 | – | – | –
NC1CCN(c2nc3cc(C(=O)O)ccc3n2Cc2ccccc2C(F)(F)F)C1 (centres undefined) | > 20 | > 50 | > 50 | –
Cc1ccc(CNc2nc3cc(C(=O)O)ccc3n2Cc2ccccc2C(F)(F)F)cc1 | > 20 | > 50 | > 50 | –

The remaining lines, values ahead:

IC50 [1] [µM] | IC50 [2] [µM] | IC50 [3] [µM] | fold change (FC) [4] | Compound
2.2 | > 50 | > 50 | – | COC(=O)c1ccc2c(c1)nc(Nc1ccc(S(N)(=O)=O)cc1)n2Cc1ccccc1C(F)(F)F
> 20 | > 50 | > 50 | – | NS(=O)(=O)c1ccc(Nc2nc3cc(C(=O)O)ccc3n2Cc2ccccc2C(F)(F)F)cc1
16.3 | > 50 | > 50 | – | CN(C)C(=O)c1ccc2c(c1)nc(Nc1ccc(S(N)(=O)=O)cc1)n2Cc1ccccc1C(F)(F)F
7.4 | > 50 | > 50 | 5 | NC(=O)c1ccc2c(c1)nc(Nc1ccc(S(N)(=O)=O)cc1)n2Cc1ccccc1C(F)(F)F
2.1 | > 50 | > 50 | > 24 | NC(=O)c1ccc2c(c1)nc(Nc1ccc(S(N)(=O)=O)cc1)n2Cc1csc2ccccc12
> 20 | – | – | – | NC(=O)c1ccc2nc(Nc3ccc(S(N)(=O)=O)cc3)n(Cc3ccccc3C(F)(F)F)c2c1
5 | > 50 | > 50 | – | COc1cccc(Cn2c(Nc3ccc(S(N)(=O)=O)cc3)nc3cc(C(N)=O)ccc32)c1OC
9.2 | > 50 | > 50 | – | CNC(=O)c1ccc2c(c1)nc(Nc1ccc(S(N)(=O)=O)cc1)n2Cc1ccccc1C(F)(F)F
> 20 | > 50 | > 50 | – | NC(=O)c1ccc2c(c1)nc(Nc1ccc(S(N)(=O)=O)cc1)n2C1(c2ccccc2)CC1
20 | > 50 | > 50 | – | COc1ccccc1Cn1c(Nc2ccc(S(N)(=O)=O)cc2)nc2cc(C(N)=O)ccc21
> 20 | > 50 | > 50 | – | NC(=O)c1ccc2c(c1)nc(Nc1ccc(S(N)(=O)=O)cc1)n2Cc1nc2ccccc2s1
19 | > 50 | > 50 | – | NC(=O)c1ccc2c(c1)nc(Nc1ccc(S(N)(=O)=O)cc1)n2Cc1csc2ccc(Cl)cc12
> 20 | > 50 | > 50 | – | NC(=O)c1ccc2c(c1)nc(Nc1ccc(S(N)(=O)=O)cc1)n2Cc1ccccn1
> 20 | > 50 | > 50 | – | CC(c1ccccc1C(F)(F)F)n1c(Nc2ccc(S(N)(=O)=O)cc2)nc2cc(C(N)=O)ccc21 (centres undefined)
